Source: ChEMBL document CHEMBL3232789, “Design and synthesis of novel 2H-chromen-2-one derivatives bearing 1,2,3-triazole moiety as lead antimicrobials” (2014)

How the values were obtained:
Bacillus subtilis = experiment: Antibacterial activity against Bacillus subtilis MTCC 441 assessed as growth inhibition at 100 ug/mL after 14 hrs by cup plate method; assay type: functional; settings: MTCC 441, 14 h, read-out: DIZ
Aspergillus flavus = experiment: Antifungal activity against Aspergillus flavus MTCC 277 assessed as growth inhibition at 100 ug/mL after 30 hrs by cup plate method; assay type: functional; settings: MTCC 277, 30 h, read-out: DIZ
Klebsiella pneumoniae = experiment: Antibacterial activity against Klebsiella pneumoniae MTCC 432 assessed as growth inhibition at 100 ug/mL after 14 hrs by cup plate method; assay type: functional; settings: MTCC 432, 14 h, read-out: DIZ
Aspergillus fumigatus = experiment: Antifungal activity against Aspergillus fumigatus MTCC 343 assessed as growth inhibition at 100 ug/mL after 30 hrs by cup plate method; assay type: functional; settings: MTCC 343, 30 h, read-out: DIZ
[1] = tested on: Staphylococcus epidermidis; experiment: Antibacterial activity against Staphylococcus epidermidis MTCC 435 assessed as growth inhibition at 100 ug/mL after 14 hrs by cup plate method; assay type: functional; settings: MTCC 435, 14 h, read-out: DIZ
Candida albicans = experiment: Antifungal activity against Candida albicans MTCC 227 assessed as growth inhibition at 100 ug/mL after 30 hrs by cup plate method; assay type: functional; settings: MTCC 227, 30 h, read-out: DIZ
Pseudomonas aeruginosa = experiment: Antibacterial activity against Pseudomonas aeruginosa MTCC 424 assessed as growth inhibition at 100 ug/mL after 14 hrs by cup plate method; assay type: functional; settings: MTCC 424, 14 h, read-out: DIZ
Escherichia coli = experiment: Antibacterial activity against Escherichia coli MTCC 443 assessed as growth inhibition at 100 ug/mL after 14 hrs by cup plate method; assay type: functional; settings: MTCC 443, 14 h, read-out: DIZ
Staphylococcus aureus = experiment: Antibacterial activity against Staphylococcus aureus MTCC 096 assessed as growth inhibition at 100 ug/mL after 14 hrs by cup plate method; assay type: functional; settings: MTCC 096, 14 h, read-out: DIZ
Salmonella typhi = experiment: Antibacterial activity against Salmonella typhi MTCC 733 assessed as growth inhibition at 100 ug/mL after 14 hrs by cup plate method; assay type: functional, Salmonella enterica subsp. enterica serovar Typhi; settings: Salmonella enterica, MTCC 733, 14 h; read-out: DIZ
Aspergillus niger = experiment: Antifungal activity against Aspergillus niger MTCC 282 assessed as growth inhibition at 100 ug/mL after 30 hrs by cup plate method; assay type: functional; settings: MTCC 282, 30 h, read-out: DIZ

| Structure (SMILES) | zone of inhibition at 100 µg/mL (Bacillus subtilis) [mm] | zone of inhibition at 100 µg/mL (Aspergillus flavus) [mm] | zone of inhibition at 100 µg/mL (Klebsiella pneumoniae) [mm] | zone of inhibition at 100 µg/mL (Aspergillus fumigatus) [mm] | zone of inhibition at 100 µg/mL [1] [mm] | zone of inhibition at 100 µg/mL (Candida albicans) [mm] | zone of inhibition at 100 µg/mL (Pseudomonas aeruginosa) [mm] | zone of inhibition at 100 µg/mL (Escherichia coli) [mm] | zone of inhibition at 100 µg/mL (Staphylococcus aureus) [mm] | zone of inhibition at 100 µg/mL (Salmonella typhi) [mm] | zone of inhibition at 100 µg/mL (Aspergillus niger) [mm] |
| --- | --- | --- | --- | --- | --- | --- | --- | --- | --- | --- | --- |
| Cc1cc(=O)oc2cc(OCCCCCCn3cc(CN4CCCC4)nn3)ccc12 | 14 | 14.7 | 14.4 | 18.5 | 14 | 14.4 | 14.8 | 11.7 | 13.6 | 15.2 | 12.5 |
| Cc1cc(=O)oc2cc(OCCCCCCn3cc(CN4CCCCC4)nn3)ccc12 | 12.6 | 12.5 | 12.9 | 18.8 | 13.1 | 14 | 13.2 | 12.8 | 12.9 | 14.4 | 11.9 |
| Cc1cc(=O)oc2cc(OCCCCCCn3cc(CN4CCOCC4)nn3)ccc12 | 15.4 | 16.8 | 14.6 | 16.9 | 13.4 | 13.5 | 14.5 | 14.4 | 11.7 | 13.5 | 12.9 |
| Cc1cc(=O)oc2cc(OCCCCCCn3cc(CN4CCN(C)CC4)nn3)ccc12 | 12.4 | 14.4 | 12.4 | 18.4 | 14.6 | 13.6 | 13.9 | 14.7 | 12.5 | 13.1 | 14 |
| CC(=O)N1CCN(Cc2cn(CCCCCCOc3ccc4c(C)cc(=O)oc4c3)nn2)CC1 | 12.4 | 12.9 | 14.4 | 18.2 | 14.8 | 14.7 | 17.1 | 13.3 | 14.4 | 12.1 | 12.7 |
| Cc1cc(=O)oc2cc(OCCCCCCn3cc(CN4CCN(Cc5ccc6c(c5)OCO6)CC4)nn3)ccc12 | 12.5 | 15 | 13.9 | 20.6 | 11.9 | 16.8 | 14.9 | 12.3 | 14 | 14.1 | 11.9 |
| Cc1cc(=O)oc2cc(OCCCCn3cc(CN4C(=O)c5ccccc5C4=O)nn3)ccc12 | 12.9 | 13.8 | 12.4 | 19 | 12.4 | 16.5 | 13.9 | 12.7 | 12.8 | 12.2 | 12.8 |
| Cc1cc(=O)oc2cc(OCCCCCCn3cc(CN4C(=O)c5ccccc5C4=O)nn3)ccc12 | 12.8 | 15.2 | 12.9 | 18.5 | 12.6 | 14.9 | 12.8 | 13.4 | 12.9 | 12.4 | 13.9 |
| Cc1cc(=O)oc2cc(OCc3cn(CCN4C(=O)c5ccccc5C4=O)nn3)ccc12 | 10.5 | 12.5 | 13.3 | 19.5 | 12.4 | 20.2 | 13 | 14.5 | 13 | 11.9 | 14.4 |
| Cc1cc(=O)oc2cc(OCc3cn(CCCN4C(=O)c5ccccc5C4=O)nn3)ccc12 | 12.5 | 16.4 | 14.4 | 21.3 | 11.4 | 18.6 | 13.1 | 12.6 | 12.8 | 12.3 | 13.2 |
| Cc1cc(=O)oc2cc(OCc3cn(CCCCN4C(=O)c5ccccc5C4=O)nn3)ccc12 | 11.6 | 14.8 | 11.6 | 18.9 | 12.8 | 16.6 | 14 | 12.4 | 12.6 | 12.5 | 13.5 |
| Cc1cc(=O)oc2cc(OCc3cn(CCCCCN4C(=O)c5ccccc5C4=O)nn3)ccc12 | 13.6 | 14.5 | 12.6 | 23.4 | 12.6 | 16.9 | 12.9 | 12.5 | 12.5 | 12.7 | 12.3 |
| Cc1cc(=O)oc2cc(OCCCCN=[N+]=[N-])ccc12 | 11.3 | 13.6 | 12.5 | 18.6 | 12.7 | 19.3 | 12.8 | 13 | 13.5 | 12.9 | 13.1 |
| Cc1cc(=O)oc2cc(OCCCCCCN=[N+]=[N-])ccc12 | 12.5 | 16.4 | 14.5 | 19 | 13.5 | 18.7 | 13 | 14.3 | 15.7 | 12.4 | 13.8 |
